“And” between values parts separate entries of the source, which are not always exact repeats. Equal values may be shown once.
Tests used:
[1] = tested on: H460 human lung cancer xenografts; experiment: Growth delay and survival of H460 xenografts, PR-104, docetaxel and schedules thereof; assay type: in vivo, CD-1 nude mice
Experimental: Specific pathogen-free homozygous nu/nu (CD-1) nu/nu [NIH-III] (Charles River Laboratories, Wilmington, Mass.) were provided by the Animal Resources Unit (University of Auckland) at 7 to 9 weeks of age. Mice were housed in groups of 4-7 in a temperature-controlled room (22±2° C.) with a 12-hour light/dark cycle and were fed ad libitum water and a standard rodent diet (Harlan Teklad diet 2018i). All animals were uniquely identifiable by ear tag number. All animal protocols were approved by the Animal Ethics Committee of the University of Auckland (AEC approval C337).
A single cell suspension was prepared by trypsinisation (1× Trypsin/EDTA) from spinner culture, counted, and suspended in ∝MEM to give required cell concentration, as listed below. Mice were inoculated (100 μL) at a single subcutaneous site (right flank) using a 1 ml syringe with a 26 gauge needle.
Seven days post-inoculation, tumors were measured three times per week until they reached the treatment size (mean diameter 5.8-8.2 mm; average 7.0 mm). Mean tumor diameter was averaged from the longest diameter (length) multiplied by the perpendicular measurement (width). Tumor diameters were estimated when mean diameter was below 5 mm, and measured with electronic callipers when ≧5 mm.
Tumor volume was calculated using the formula:
where L=length and w=width in mm of the carcinoma.
Excess compound was discarded.
Tumor bearing mice were assigned randomly to treatment groups when tumor diameter reached treatment size. Animals were rejected if xenografts show evidence of: (i) attachment to underlying muscle (due to risk of local invasion), (ii) signs of ulceration, or (iii) indolent tumor growth. Drug administration begins on the day of assignment. In general, 0.7-0.8 of the inoculated population is assigned to the experiment. Drug administration was undertaken as outlined above.
During and after treatment, tumor size and body weights were measured regularly. Animals were culled if (i) the average diameter of the tumor exceeds 15 mm (survival end-point), (ii) body weight loss exceeds 15% of pre-treatment value, (iii) there is evidence of prolonged or excessive morbidity, or (iv) tumor ulceration occurred. Each experiment was terminated at day 120 after treatment initiation.
Kaplan-Meier plots were constructed and median survival was calculated (TTE50). The statistical significance of any differences in overall survival between treatment groups and control was analysed by Log Rank P statistical test. The log-rank test was calculated using XLStat Life (Kovach Computing Services Ltd). The statistic significance in overall survival between each treatment group and control was determined by testing the null hypothesis that the survival curves are identical in the two populations.
The time for individual tumors to increase in volume by 4 fold relative to treatment day-1 (relative tumor volume×4−RTV^4) was recorded. The median RTV^4 is calculated for each group and the difference in RTV^4 between control and treatment groups is described as the Tumor Growth Delay (TGD) in days. RTV^4 values notmalise for any bias in tumor treatment volume on day-1. The RTV^4 of each treatment group is tested for statistical difference from control group by unpaired t-test and Mann Whitney U test (means and medians, respectively).
In circumstances where long-term controls (LTCs) occur, an RTV^4 value equal to the total duration of the experiment is assigned for the purposes of statistical analysis (usually 120 days). Where one or more LTC is present the median RTV^4 of each treatment group is tested for statistical difference from control group by Mann Whitney U test only. The statistical analysis was conducted at a p level of 0.05 (two-tailed). SigmaStat v3.10 was used for the statistical analysis of RTV^4 values. SigmaPlot v9 was used for all graph plots.
Weight loss nadirs (time independent maxima) were recorded for each treatment group.

[2] = tested on: SiHa human cervical cancer xenograft; experiment: Growth delay and survival of SiHa xenograft, PR-104 and docetaxel; assay type: in vivo, Rag-1^null mice
Description: Analysis: End-points will be expressed as TTE50, Median RTV^4 and plotted in Kaplan-Meier Plots and analysed by Log Rank P statistical test. Weight loss nadir will be compared between schedules.

[3] = tested on: 22RV1 androgen-resistant human prostate cancer xenograft; experiment: Growth delay and survival of 22RV1 xenograft, PR-104 and docetaxel; assay type: in vivo, CD-1 nude mice
Experimental: (§1) End-point: After treatment, tumor size and body weights were measured regularly and mice were culled either when the average diameter of the tumor reached 15 mm (end-point), the tumor ulcerated or when the body weight change reached −15%. Experiment was ended and all remaining mice culled 120 days after treatment.
(§2) Analysis: End-points will be expressed as TTE50, Median RTV^4 and plotted in Kaplan-Meier Plots and analysed by Log Rank P statistical test.

[4] = tested on: A2780 human ovarian cancer xenografts; experiment: Growth delay and survival of A2780 xenografts, PR-104 and docetaxel; assay type: in vivo, CD-1 nude mice; conditions: A2780 xenograft
Experimental: as §1, §2

[5] = H460 xenograft, PR-104 652 mg/kg, docetaxel 73 mg/kg, q2w×2
[6] = Rag-1 mice, PR-104 652 mg/kg, docetaxel 73 mg/kg, q2w×2
[7] = 22RV1 xenograft, PR-104 652 mg/kg, docetaxel 73 mg/kg, q2w×2
[8] = PR-104 652 mg/kg, docetaxel 73 mg/kg, q2w×2

SMILES: CC(=O)O[C@@]12CO[C@@H]1C[C@H](O)[C@@]1(C)C(=O)[C@H](O)C3=C(C)[C@@H](OC(=O)[C@H](O)[C@@H](NC(=O)OC(C)(C)C)c4ccccc4)C[C@@](O)([C@@H](OC(=O)c4ccccc4)[C@H]21)C3(C)C [Docetaxel, (2R,3S)-N-carboxy-3-phenylisoserine, N-tert-butyl ester, 13-ester with 5β-20-epoxy-1,2α,4,7β,10β,13α-hexahydroxytax-11-en-9-one 4-acetate 2-benzoate, trihydrate, reference compound]
- Weight Loss Nadir (%) ([1]; H460 xenograft, CD-1 nude mice, mean body weight loss nadir, PR-104 652 mg/kg, docetaxel 73 mg/kg, i.p., q2w×2, trihydrate): −4.2 ± 1.0%
- Unscheduled deaths ([1]; H460 xenograft, female CD-1 nude mice, total dose PR-104 652 mg/kg, docetaxel 73 mg/kg, i.p., q2w×2): 0
- LTC (long term control, failed to reach end-point within duration of experiment) ([1]; H460 xenograft, 120 day experiment, PR-104 652 mg/kg, docetaxel 73 mg/kg, q2w×2): 0
- Median RTV^4 (median time for tumor volume to increase 4-fold) [1, 5]: 8 days
- TGD (tumor growth delay; relative gain in median RTV^4 versus control) [1, 5]: 0%
- TTE50 (median time for tumor end-point to occur from day of treatment) ([1]; H460 xenograft, end-point >15 mm mean diameter, PR-104 652 mg/kg, docetaxel 73 mg/kg, q2w×2): 14 days
- Gain TTE50 (improvement in median survival) ([1]; H460 xenograft, versus control (11 days), PR-104 652 mg/kg, docetaxel 73 mg/kg, q2w×2): 3 days
- activity against H460 xenograft (in words) ([1]; tumor growth delay and survival end-points): refractory
- activity against SiHa xenograft (in words) ([2]; Rag-1 mice): displayed activity
- LTC (long term control) ([2]; Rag-1 mice, 120 day experiment): 0
- Weight Loss Nadir (%) ([2]; Rag-1 mice, PR-104 652 mg/kg, docetaxel 73 mg/kg, i.p., q2w×2, trihydrate): −7.0±0.8%
- Median RTV^4 [2, 6]: 44.5 days
- TTE50 (median time for tumor end-point to occur) [2, 6]: 54 days
- TGD (relative gain in median RTV^4 versus control) ([2]; Rag-1 mice, PR-104 652 mg/kg, docetaxel 73 mg/kg, q2w×2, trihydrate): 271% and 270.8%
- Day of death ([2]; Rag-1 mice, day of unscheduled death, trihydrate): 44 and 66
- improvement in tumor growth delay ([2]; Rag-1 mice, versus control): 32.5 days
- Gain TTE50 (improvement in median survival) ([2]; Rag-1 mice, versus control (17 days)): 37 days
- Unscheduled deaths ([2]; female Rag-1 mice, total dose PR-104 652 mg/kg, docetaxel 73 mg/kg, i.p., q2w×2): 2
- activity against 22RV1 xenograft (in words) ([3]; 22RV1 prostate xenograft model): moderately active
- Weight Loss Nadir (%) ([3]; 22RV1 xenograft, CD-1 nude mice, PR-104 652 mg/kg, docetaxel 73 mg/kg, i.p., q2w×2, trihydrate): −3.5±0.8%
- LTC (long term control) ([3]; 22RV1 xenograft, 120 day experiment): 0
- Median RTV^4 [3, 7]: 20 days
- TGD (relative gain in median RTV^4 versus control; TGI in text) [3, 7]: 122%
- TTE50 [3, 7]: 24 days
- median tumor growth delay ([3]; 22RV1 xenograft, versus control): 11 days
- Gain TTE50 (improvement in median survival) ([3]; 22RV1 xenograft, versus control (9.5 days)): 14.5 days
- Weight Loss Nadir (%) ([4]; CD-1 nude mice, PR-104 652 mg/kg, docetaxel 73 mg/kg, i.p., q2w×2, trihydrate): −8.7±1.5%
- LTC (long term control) ([4]; 120 day experiment): 0
- Median RTV^4 [4, 8]: 12 days
- TTE50 [4, 8]: 14 days
- TGD (relative gain in median RTV^4 versus control) ([4]; PR-104 652 mg/kg, docetaxel 73 mg/kg, q2w×2, trihydrate): 167% and 166.7%
- improvement in median tumor growth delay ([4]; versus control): 7.5 days
- Gain TTE50 (improvement in median survival) ([4]; versus control (6 days)): 8 days

— patent US20080064665A1, “Combination approaches to cancer treatment” (priority 2006, published 2008)
